In ChEMBL document CHEMBL5212743, “Selectivity Literature for EUbOPEN Chemogenomics Library wave 3” (2023):

Experiments:
[1] = molecular target: T1, Homeodomain-interacting protein kinase 1 (Homo sapiens, UniProt Q86Z02); experiment: Selectivity interaction (KinomeScan (DiscoverX)) EUB0000724a HIPK1; details: at 1 µM
[2] = molecular target: T1, Homeodomain-interacting protein kinase 1; experiment: Selectivity interaction (NanoBRET assay (HEK293T cells)) EUB0000724a HIPK1
[3] = molecular target: T2, Homeodomain-interacting protein kinase 2 (Homo sapiens, UniProt Q9H2X6); experiment: Selectivity interaction (KinomeScan (DiscoverX)) EUB0000724a HIPK2; details: at 1 µM
Target sequence in this assay (Q9H2X6 whole entry, looked up): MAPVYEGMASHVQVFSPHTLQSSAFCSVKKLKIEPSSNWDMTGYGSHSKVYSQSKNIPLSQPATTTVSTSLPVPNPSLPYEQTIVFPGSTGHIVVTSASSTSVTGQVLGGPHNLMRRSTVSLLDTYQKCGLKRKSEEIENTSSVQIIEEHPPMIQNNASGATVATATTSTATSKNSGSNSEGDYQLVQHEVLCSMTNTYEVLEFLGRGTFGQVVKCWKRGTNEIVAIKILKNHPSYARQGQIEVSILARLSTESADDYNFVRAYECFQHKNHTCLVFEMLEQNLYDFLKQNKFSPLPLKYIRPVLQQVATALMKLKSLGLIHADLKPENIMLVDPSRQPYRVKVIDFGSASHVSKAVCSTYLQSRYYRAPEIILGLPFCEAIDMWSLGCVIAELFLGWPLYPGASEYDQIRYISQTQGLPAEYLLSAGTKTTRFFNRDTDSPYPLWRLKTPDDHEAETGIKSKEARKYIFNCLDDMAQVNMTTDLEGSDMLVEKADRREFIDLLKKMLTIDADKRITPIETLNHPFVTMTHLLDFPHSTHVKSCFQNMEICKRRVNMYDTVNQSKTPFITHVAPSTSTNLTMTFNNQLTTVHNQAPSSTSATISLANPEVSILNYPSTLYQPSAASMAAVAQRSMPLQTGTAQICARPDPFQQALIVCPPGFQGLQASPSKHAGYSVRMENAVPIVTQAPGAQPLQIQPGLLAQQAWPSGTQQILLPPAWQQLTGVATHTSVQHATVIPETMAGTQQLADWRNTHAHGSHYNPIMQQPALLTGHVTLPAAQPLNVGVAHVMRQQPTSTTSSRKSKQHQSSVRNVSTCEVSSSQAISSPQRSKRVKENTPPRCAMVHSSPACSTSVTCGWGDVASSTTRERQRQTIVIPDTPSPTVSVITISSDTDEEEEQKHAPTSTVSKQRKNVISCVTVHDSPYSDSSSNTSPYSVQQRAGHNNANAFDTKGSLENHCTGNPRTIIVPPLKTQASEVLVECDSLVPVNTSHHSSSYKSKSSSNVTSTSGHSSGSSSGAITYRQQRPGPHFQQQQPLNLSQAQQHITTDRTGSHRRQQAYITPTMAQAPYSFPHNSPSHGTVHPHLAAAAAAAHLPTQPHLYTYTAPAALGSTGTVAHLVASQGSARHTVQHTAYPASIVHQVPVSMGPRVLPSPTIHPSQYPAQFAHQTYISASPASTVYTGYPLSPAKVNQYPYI

[4] = molecular target: T2, Homeodomain-interacting protein kinase 2; experiment: Selectivity interaction (NanoBRET assay (HEK293T cells)) EUB0000724a HIPK2
Target sequence in this assay (Q9H2X6 whole entry): as the sequence (Q9H2X6 whole entry, looked up) above

[5] = molecular target: T3, Mitogen-activated protein kinase 15 (Homo sapiens) (UniProt Q8TD08); experiment: Selectivity interaction (KinomeScan (DiscoverX)) EUB0000724a MAPK15; details: at 1 µM
T3 sequence (whole entry): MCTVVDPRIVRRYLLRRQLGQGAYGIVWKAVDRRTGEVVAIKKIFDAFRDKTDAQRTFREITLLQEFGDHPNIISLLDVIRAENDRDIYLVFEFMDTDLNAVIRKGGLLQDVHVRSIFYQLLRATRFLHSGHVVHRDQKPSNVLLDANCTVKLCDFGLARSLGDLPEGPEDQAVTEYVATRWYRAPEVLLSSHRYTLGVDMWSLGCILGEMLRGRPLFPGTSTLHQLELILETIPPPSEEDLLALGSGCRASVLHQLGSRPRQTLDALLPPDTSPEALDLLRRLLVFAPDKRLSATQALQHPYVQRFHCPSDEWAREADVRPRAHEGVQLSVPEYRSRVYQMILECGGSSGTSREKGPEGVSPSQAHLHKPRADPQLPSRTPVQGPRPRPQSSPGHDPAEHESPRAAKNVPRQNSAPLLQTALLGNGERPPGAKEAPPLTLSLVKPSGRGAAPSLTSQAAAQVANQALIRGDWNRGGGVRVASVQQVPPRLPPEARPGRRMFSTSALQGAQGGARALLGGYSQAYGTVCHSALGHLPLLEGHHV

[6] = molecular target: T4, Serine/threonine-protein kinase 16 (Homo sapiens, UniProt O75716); experiment: Selectivity interaction (KinomeScan (DiscoverX)) EUB0000724a STK16; details: at 1 µM
[7] = molecular target: T4, Serine/threonine-protein kinase 16; experiment: Selectivity interaction (NanoBRET assay (HEK293T cells)) EUB0000724a STK16
[8] = molecular target: Serine/threonine-protein kinase Nek7 (Homo sapiens, UniProt Q8TDX7); experiment: Selectivity interaction (KinomeScan (DiscoverX)) EUB0000724a NEK7; details: at 1 µM
[9] = molecular target: T5, Phosphatidylinositol 5-phosphate 4-kinase type-2 beta (Homo sapiens) (UniProt P78356); experiment: Selectivity interaction (KinomeScan (DiscoverX)) EUB0000724a PIP4K2B; details: at 1 µM
T5 sequence (whole entry): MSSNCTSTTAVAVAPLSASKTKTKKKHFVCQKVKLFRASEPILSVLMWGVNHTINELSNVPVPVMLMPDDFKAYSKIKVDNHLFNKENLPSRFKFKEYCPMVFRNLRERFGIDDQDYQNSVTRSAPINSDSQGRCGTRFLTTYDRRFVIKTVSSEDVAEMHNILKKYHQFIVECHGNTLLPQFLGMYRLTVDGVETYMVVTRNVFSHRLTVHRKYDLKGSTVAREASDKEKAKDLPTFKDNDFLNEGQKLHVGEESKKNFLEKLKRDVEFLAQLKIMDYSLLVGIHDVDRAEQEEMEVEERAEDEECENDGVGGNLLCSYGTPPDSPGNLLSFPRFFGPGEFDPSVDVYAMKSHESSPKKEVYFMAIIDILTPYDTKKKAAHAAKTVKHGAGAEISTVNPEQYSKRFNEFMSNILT

[10] = molecular target: 5-hydroxytryptamine receptor 1A (Homo sapiens, UniProt P08908); experiment: Selectivity interaction (GPCR panel (PDSP screen)) EUB0000705a HTR1A
[11] = molecular target: T6, Alpha-1A adrenergic receptor (Homo sapiens, UniProt P35348); experiment: Selectivity interaction (GPCR panel (PDSP screen)) EUB0000705a ADRA1A
T6 sequence (P35348 whole entry): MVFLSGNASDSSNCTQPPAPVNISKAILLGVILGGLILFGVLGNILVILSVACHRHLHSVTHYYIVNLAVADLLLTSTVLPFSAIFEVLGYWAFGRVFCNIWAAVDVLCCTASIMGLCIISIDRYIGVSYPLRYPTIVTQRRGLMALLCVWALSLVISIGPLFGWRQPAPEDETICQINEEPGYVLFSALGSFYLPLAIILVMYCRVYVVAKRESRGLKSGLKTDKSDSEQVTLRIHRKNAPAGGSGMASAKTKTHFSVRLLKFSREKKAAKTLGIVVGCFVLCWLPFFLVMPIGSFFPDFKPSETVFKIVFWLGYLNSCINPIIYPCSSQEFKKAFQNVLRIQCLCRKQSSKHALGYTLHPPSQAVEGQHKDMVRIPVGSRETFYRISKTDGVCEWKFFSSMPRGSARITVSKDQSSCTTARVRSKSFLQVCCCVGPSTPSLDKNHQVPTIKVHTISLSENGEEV

[12] = molecular target: T7, Alpha-1D adrenergic receptor (Homo sapiens, UniProt P25100); experiment: Selectivity interaction (GPCR panel (PDSP screen)) EUB0000705a ADRA1D
T7 sequence (P25100 whole entry): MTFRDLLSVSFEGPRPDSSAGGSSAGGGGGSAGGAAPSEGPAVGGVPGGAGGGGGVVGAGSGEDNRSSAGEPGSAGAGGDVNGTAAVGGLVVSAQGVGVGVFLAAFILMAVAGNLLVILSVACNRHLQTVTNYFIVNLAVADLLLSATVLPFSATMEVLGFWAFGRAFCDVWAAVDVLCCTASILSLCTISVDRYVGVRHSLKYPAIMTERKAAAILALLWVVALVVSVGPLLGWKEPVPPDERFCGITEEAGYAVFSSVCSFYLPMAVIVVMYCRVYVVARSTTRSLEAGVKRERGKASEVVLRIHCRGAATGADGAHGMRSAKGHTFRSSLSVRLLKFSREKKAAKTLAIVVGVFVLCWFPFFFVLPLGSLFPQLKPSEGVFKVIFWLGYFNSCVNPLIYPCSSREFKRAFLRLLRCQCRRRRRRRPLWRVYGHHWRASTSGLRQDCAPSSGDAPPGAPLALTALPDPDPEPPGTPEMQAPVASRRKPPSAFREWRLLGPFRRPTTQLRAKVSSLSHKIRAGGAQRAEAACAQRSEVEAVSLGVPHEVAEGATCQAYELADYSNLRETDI

[13] = molecular target: T8, Alpha-2C adrenergic receptor (Homo sapiens, UniProt P18825); experiment: Selectivity interaction (GPCR panel (PDSP screen)) EUB0000705a ADRA2C
T8 sequence (P18825 whole entry): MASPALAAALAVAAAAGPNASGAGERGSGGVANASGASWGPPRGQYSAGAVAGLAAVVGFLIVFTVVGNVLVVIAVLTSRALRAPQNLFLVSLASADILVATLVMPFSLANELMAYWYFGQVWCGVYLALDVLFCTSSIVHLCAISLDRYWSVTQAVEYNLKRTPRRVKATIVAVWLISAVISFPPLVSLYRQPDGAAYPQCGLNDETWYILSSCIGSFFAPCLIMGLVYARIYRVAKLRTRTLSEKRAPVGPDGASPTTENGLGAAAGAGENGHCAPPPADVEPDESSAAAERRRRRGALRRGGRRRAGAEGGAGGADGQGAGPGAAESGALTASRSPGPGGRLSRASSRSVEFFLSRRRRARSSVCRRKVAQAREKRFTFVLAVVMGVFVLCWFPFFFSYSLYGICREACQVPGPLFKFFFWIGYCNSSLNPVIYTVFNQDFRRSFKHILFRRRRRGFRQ

[14] = molecular target: Beta-3 adrenergic receptor (Homo sapiens, UniProt P13945); experiment: Selectivity interaction (GPCR panel (PDSP screen)) EUB0000705a ADRB3
Mu-type opioid receptor = Mu-type opioid receptor (Homo sapiens, UniProt P35372); experiment: Selectivity interaction (GPCR panel (PDSP screen)) EUB0000705a OPRM1
[15] = molecular target: T9, Leucine-rich repeat serine/threonine-protein kinase 2 (Homo sapiens, UniProt Q5S007); experiment: Selectivity interaction (KinomeScan (DiscoverX)) EUB0000705a LRRK2; details: at 1 µM
[16] = molecular target: T9, Leucine-rich repeat serine/threonine-protein kinase 2; experiment: Selectivity interaction (NanoBRET assay (HEK293T cells)) EUB0000705a LRRK2

T4 sequence (O75716 whole entry): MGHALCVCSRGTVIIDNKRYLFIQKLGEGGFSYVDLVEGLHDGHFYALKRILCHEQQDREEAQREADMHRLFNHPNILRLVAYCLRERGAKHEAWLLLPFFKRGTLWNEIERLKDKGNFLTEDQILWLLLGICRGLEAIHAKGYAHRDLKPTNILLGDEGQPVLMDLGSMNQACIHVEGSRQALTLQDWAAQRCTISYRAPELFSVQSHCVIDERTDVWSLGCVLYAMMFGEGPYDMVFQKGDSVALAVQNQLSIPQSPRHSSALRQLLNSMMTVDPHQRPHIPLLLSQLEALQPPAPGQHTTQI
T9 sequence (Q5S007 whole entry): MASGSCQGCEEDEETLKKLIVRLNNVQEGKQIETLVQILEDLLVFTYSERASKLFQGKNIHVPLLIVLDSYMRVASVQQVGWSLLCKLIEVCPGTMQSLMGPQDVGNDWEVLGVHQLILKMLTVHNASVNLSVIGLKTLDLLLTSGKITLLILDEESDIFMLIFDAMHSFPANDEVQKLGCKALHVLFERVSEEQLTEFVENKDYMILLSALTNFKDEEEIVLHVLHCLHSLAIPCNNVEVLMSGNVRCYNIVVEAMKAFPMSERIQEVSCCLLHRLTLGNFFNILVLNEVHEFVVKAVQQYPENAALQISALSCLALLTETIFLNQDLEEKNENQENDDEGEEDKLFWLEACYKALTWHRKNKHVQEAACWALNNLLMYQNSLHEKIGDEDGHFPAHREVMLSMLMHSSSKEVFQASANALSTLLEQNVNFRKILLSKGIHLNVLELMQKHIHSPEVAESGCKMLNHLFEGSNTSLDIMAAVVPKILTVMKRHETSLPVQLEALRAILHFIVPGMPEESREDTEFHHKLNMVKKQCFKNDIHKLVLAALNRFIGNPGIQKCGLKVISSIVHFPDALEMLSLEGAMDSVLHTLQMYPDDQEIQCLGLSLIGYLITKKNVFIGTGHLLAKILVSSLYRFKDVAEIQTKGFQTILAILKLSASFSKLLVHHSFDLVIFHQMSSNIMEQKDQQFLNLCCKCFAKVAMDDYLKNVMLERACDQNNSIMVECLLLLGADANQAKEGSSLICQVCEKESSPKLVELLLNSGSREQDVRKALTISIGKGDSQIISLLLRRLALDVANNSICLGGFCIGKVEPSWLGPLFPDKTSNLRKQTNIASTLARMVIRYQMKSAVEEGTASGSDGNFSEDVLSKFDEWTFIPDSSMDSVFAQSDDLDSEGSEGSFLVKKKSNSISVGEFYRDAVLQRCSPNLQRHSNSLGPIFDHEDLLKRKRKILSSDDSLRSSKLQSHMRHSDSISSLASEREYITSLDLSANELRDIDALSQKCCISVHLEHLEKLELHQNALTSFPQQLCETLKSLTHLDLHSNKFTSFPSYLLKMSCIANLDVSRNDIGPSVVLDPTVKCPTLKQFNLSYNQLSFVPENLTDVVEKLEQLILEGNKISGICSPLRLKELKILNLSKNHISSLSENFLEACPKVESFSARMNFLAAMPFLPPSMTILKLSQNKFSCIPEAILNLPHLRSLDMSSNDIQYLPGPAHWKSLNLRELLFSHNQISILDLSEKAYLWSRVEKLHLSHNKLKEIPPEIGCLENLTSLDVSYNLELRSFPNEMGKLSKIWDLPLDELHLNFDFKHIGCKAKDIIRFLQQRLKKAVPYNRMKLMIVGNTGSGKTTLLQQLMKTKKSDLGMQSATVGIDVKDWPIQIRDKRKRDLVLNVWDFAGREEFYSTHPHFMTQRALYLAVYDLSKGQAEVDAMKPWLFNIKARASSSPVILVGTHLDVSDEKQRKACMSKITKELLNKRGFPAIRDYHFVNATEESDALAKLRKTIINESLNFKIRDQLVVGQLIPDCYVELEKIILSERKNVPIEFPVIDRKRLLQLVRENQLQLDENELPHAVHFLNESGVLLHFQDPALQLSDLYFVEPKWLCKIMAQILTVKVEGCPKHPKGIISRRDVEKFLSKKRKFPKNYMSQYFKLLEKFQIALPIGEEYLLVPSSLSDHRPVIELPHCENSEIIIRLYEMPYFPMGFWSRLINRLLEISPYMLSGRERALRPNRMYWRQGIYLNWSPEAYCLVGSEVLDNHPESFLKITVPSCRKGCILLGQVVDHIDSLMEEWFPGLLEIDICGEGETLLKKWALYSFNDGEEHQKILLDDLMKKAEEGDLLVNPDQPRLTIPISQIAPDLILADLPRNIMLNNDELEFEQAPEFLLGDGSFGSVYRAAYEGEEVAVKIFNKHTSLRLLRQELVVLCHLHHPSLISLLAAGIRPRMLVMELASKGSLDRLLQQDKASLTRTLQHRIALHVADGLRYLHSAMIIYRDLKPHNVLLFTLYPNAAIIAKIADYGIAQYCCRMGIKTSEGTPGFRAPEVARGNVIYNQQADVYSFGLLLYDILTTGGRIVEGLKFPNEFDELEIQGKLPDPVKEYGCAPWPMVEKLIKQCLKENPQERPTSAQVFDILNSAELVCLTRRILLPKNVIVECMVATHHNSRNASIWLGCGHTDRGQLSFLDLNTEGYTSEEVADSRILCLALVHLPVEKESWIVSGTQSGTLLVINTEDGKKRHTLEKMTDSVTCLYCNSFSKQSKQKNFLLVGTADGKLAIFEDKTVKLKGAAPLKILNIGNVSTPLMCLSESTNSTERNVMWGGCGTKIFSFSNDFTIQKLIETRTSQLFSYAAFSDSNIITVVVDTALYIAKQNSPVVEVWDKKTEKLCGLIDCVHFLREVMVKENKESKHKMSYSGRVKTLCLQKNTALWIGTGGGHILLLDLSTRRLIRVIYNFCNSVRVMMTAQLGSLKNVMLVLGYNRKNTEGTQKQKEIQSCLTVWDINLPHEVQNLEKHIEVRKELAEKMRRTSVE
Sequence of Serine/threonine-protein kinase Nek7 (Q8TDX7 whole entry, looked up): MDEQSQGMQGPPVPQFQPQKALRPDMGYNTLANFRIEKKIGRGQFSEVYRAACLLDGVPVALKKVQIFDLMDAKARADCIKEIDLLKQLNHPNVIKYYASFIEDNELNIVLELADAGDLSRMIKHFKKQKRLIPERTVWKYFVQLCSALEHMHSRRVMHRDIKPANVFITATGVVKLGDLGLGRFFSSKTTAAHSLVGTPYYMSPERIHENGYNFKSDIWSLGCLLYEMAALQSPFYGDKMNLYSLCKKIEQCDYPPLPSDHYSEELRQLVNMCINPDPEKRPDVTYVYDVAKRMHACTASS
Sequence of Beta-3 adrenergic receptor (P13945 whole entry): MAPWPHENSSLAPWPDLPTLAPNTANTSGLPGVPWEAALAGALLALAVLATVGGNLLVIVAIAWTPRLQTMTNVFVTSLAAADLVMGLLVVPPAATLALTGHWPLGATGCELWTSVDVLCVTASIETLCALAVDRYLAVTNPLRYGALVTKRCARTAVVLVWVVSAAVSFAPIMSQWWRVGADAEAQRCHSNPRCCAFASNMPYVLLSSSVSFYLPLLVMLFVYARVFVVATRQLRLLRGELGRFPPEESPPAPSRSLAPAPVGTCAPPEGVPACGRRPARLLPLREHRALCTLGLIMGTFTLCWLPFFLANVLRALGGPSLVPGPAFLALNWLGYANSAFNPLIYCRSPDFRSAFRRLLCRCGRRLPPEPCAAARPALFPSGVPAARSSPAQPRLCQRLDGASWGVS

Row | % of control [1] [%] | IC50 [2] [µM] | % of control [3] [%] | IC50 [4] [µM] | % of control [6] [%] | IC50 [7] [µM] | % of control [8] [%] | % of control [9] [%] | Ki [10] [µM] | Ki [11] [µM] | Ki [12] [µM] | Ki [13] [µM] | Ki [14] [µM] | Ki (Mu-type opioid receptor) [µM] | % of control [15] [%] | IC50 [16] [µM] | SMILES | % of control [5] [%]
1 | 31 | > 10 | 34 | > 10 | 53 | 0.167 | 40 | 50 | – | – | – | – | – | – | – | – | COc1cc(Nc2nccc(-c3cnn4nc(OC)ccc34)n2)cc(C(F)(F)F)c1 | 21
2 | – | – | – | – | – | – | – | – | 2.18 | 1.67 | > 10 | > 10 | > 10 | 4.52 | > 95 | > 10 | CN1CCN(C(=O)C(C)(C)c2ccc(C(=O)Nc3cn4cc(-c5cc(C(C)(C)C)cc(C(C)(C)C)c5)ccc4n3)cc2)CC1 [T3-CLK-N] | –
